Assay results taken from ChEMBL document CHEMBL1201862, “PubChem BioAssay data set” (2004).
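Results reflect a 48-hour exposure of cells in 96-well plates to compound at five concentrations. GI50 is the concentration that inhibits growth by half.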 Activity calls are given as the source filed them. Cut-off read from the data, not from the text of the source: active = GI50 up to about 1.1 µM and inactive = higher.

Tests used:
Assay in all cases: DTP human tumour cell line panel, 48 h
SF-539 = system: SF-539
IGROV-1 = system: IGROV-1
HT-29 = system: HT-29
UO-31 = system: UO-31
SW-620 = system: SW-620
MOLT-4 = system: MOLT-4
SN12C = system: SN12C
HCC 2998 = system: HCC 2998
BT-549 = system: BT-549
SF-295 = system: SF-295
786-0 = system: 786-0
NCI/ADR-RES = system: NCI/ADR-RES
RPMI-8226 = system: RPMI-8226
EKVX = system: EKVX
OVCAR-5 = system: OVCAR-5
TK-10 = system: TK-10
OVCAR-3 = system: OVCAR-3
K562 = system: K562
UACC-62 = system: UACC-62
HOP-62 = system: HOP-62
MDA-N = system: MDA-N
HCT-116 = system: HCT-116
ACHN = system: ACHN
T47D = system: T47D
DU-145 = system: DU-145
CAKI-1 = system: CAKI-1
U-251 = system: U-251
COLO 205 = system: COLO 205
OVCAR-8 = system: OVCAR-8
LOX IMVI = system: LOX IMVI
OVCAR-4 = system: OVCAR-4
SNB-19 = system: SNB-19
MDA-MB-435 = system: MDA-MB-435
PC-3 = system: PC-3
M14 = system: M14
NCI-H226 = system: NCI-H226
SK-MEL-2 = system: SK-MEL-2
UACC-257 = system: UACC-257
NCI-H522 = system: NCI-H522
HCT-15 = system: HCT-15
SK-OV-3 = system: SK-OV-3
NCI-H23 = system: NCI-H23
NCI-H460 = system: NCI-H460
MDA-MB-231 = system: MDA-MB-231
KM12 = system: KM12
RXF 393 = system: RXF 393
HOP-92 = system: HOP-92
Hs-578T = system: Hs-578T
A549 = system: A549
SK-MEL-5 = system: SK-MEL-5
MCF7 = system: MCF7
CCRF-CEM = system: CCRF-CEM
SF-268 = system: SF-268
SR = system: SR

## COc1cccc(C2CC(=O)c3cc(N4CCCC4)ccc3N2)c1 (centres undefined)
SF-539
  GI50: 27.2 nM (active)
IGROV-1
  GI50: 45 nM (active)
HT-29
  GI50: 21.1 nM (active)
UO-31
  GI50: 73.5 nM (active)
SW-620
  GI50: 24.3 nM (active)
MOLT-4
  GI50: 33.8 nM (active)
SN12C
  GI50: 41.8 nM (active)
HCC 2998
  GI50: 47.5 nM (active)
BT-549
  GI50: 84.3 nM (active)
SF-295
  GI50: 35.8 nM (active)
786-0
  GI50: 40.4 nM (active)
NCI/ADR-RES
  GI50: 17.3 nM (active)
RPMI-8226
  GI50: 49.2 nM (active)
EKVX
  GI50: 270 nM (active)
OVCAR-5
  GI50: 60.8 nM (active)
TK-10
  GI50: 1210 nM (inactive)
OVCAR-3
  GI50: 34.4 nM (active)
K562
  GI50: 23.7 nM (active)
UACC-62
  GI50: 44.9 nM (active)
HOP-62
  GI50: 1750 nM (inactive)
MDA-N
  GI50: 2.69 nM (active)
HCT-116
  GI50: 25.1 nM (active)
ACHN
  GI50: 83.2 nM (active)
T47D
  GI50: 56000 nM (inactive)
DU-145
  GI50: 34.4 nM (active)
CAKI-1
  GI50: 56.1 nM (active)
U-251
  GI50: 24.8 nM (active)
COLO 205
  GI50: 36.5 nM (active)
OVCAR-8
  GI50: 37 nM (active)
LOX IMVI
  GI50: 51.6 nM (active)
OVCAR-4
  GI50: 23300 nM (inactive)
SNB-19
  GI50: 29.6 nM (active)
MDA-MB-435
  GI50: 7.94 nM (active)
PC-3
  GI50: 22 nM (active)
M14
  GI50: 23.4 nM (active)
NCI-H226
  GI50: 38.5 nM (active)
SK-MEL-2
  GI50: 29.6 nM (active)
UACC-257
  GI50: 10 nM (active)
NCI-H522
  GI50: 17.7 nM (active)
HCT-15
  GI50: 33.5 nM
SK-OV-3
  GI50: 43 nM (active)
NCI-H23
  GI50: 26.5 nM (active)
NCI-H460
  GI50: 40.2 nM (active)
MDA-MB-231
  GI50: 76.6 nM (active)
KM12
  GI50: 86.1 nM (active)
RXF 393
  GI50: 17.7 nM (active)
HOP-92
  GI50: 348 nM (active)
Hs-578T
  GI50: 10 nM (active)
A549
  GI50: 36 nM (active)
SK-MEL-5
  GI50: 25.2 nM (active)
MCF7
  GI50: 398 nM (active)
CCRF-CEM
  GI50: 40.7 nM (active)
SF-268
  GI50: 69.2 nM (active)
SR
  GI50: 14.4 nM (active)
